Data: patent publication EP3710011B1, “PENTACYCLIC TRITERPENES FOR THE TREATMENT OF AN ORAL DISEASE” (PIERRE FABRE MEDICAMENT, priority 2017, dated 2019)
Where two headings read alike, the source gives them in different places.

Experiments:
[1] = system: Staphylococcus aureus CIP4.83; experiment: Determination of minimal inhibitory (CMI) and minimal bactericidal (CMB) concentration, liquid micro-method then subculture on agar; type: cell-based; conditions: for CMB / CMI / CMB (DMSO dilution) / CMI (DMSO dilution): S. aureus; for CMB / CMI: purified sample dissolved in DMSO; for CMB (DMSO dilution): real dilution (DMSO) at the CMB point; for CMI (DMSO dilution): real dilution (DMSO) at the CMI point
Procedure: • L'échantillon « Extrait CCV » obtenu tel que dans l'exemple 1 est titré à 150 µg/ml en Célastrol, 40 µg/ml en Tingénine A et 20 µg/ml en Tingénine B, dissouts dans du pentylène glycol 100 %. Pour les besoins du dosage, il est dilué à 2 % dans de l'eau pour préparation injectable (PPI). • L'échantillon « Tingénine A » est titré à 150 µg/ml dans du DMSO 10 %. • L'échantillon « Tingénine B » est titré à 150 µg/ml du DMSO 10 %. • L'échantillon « Célastrol » est titré à 150 µ/ml dans du DMSO 10 %.
Les souches bactériennes utilisées sont : • Staphylococcus aureus CIP4.83 entretenue sur milieu gelosé Trypticase-soja à 36 +/- 1 °C. • Fusobacterium nucleatum CIP101130T entretenue sur milieu gélosé Columbia + 5 % de sang de mouton à 36+/-1 °C en anaérobiose
La détermination de la Concentration Minimale Inhibitrice (CMI) est réalisée par micro-méthode en milieu liquide. 100 µL de milieu de culture Muller Hinton sont déposés dans chaque puits d'une microplaque de 96 puits stérile. 100 µL de l'échantillon à tester sont déposés dans la colonne 1 de la microplaque (deux puits par extrait à tester). Des dilutions de raison 2 sont réalisées de la façon suivante : 100 µL sont prélevés dans les puits de la colonne 1 puis ajouté et mélangés aux puits de la colonne 2. Cette opération est répétée jusqu'à la colonne 10. Les 100 µL prélevés dans la colonne 10 sont éliminés. La colonne 11 est utilisée comme témoin positif (milieu de culture + bactérie à tester). La colonne 12 est utilisée comme témoin négatif (milieu de culture seul). La microplaque est ensemencée (hors témoin négatif de croissance). Après une incubation de 16 à 24 h l'observation de la croissance à l'œil nu permet de déterminer une CMI (la plus faible concentration en extrait qui inhibe la croissance).
La détermination de la Concentration Minimale Bactéricide (CMB) est réalisée par repiquage des microplaques CMI sur un milieu Muller Hinton gélosé. Après incubation, la CMB correspond à la plus faible concentration de l'extrait testé pour laquelle on observe une absence de croissance.
Dans les tableaux 1 et 2 présentant les résultats comparatifs des différents échantillons testés sont indiqués : • 1. Pour l'extrait CCV, les CMI/CMB sont des concentrations équivalentes en célastrol. En effet, cet extrait est une solution qui contient majoritairement du Célastrol (Célastrol > 50 %, Tingénine A > 5 % et Tingénine B > 5 %). L'extrait est dissout dans du Pentylène Glycol (PG), on a le % (P/P) correspondant à la dilution réelle au point de CMI ou de CMB, et on en déduit la concentration équivalente en Célastrol grâce au titre (150 µg/ml) quantifié par HPLC. • 2. Pour les échantillons de Célastrol, de Tingénine A et de Tingénine B purifiés et dissouts dans le DMSO, le % mentionné correspond à la dilution réelle au point de CMI ou de CMB. • 3. Pour les solvants de contrôle DMSO et Pentylène Glycol (PG) testés en parallèle, le % correspond à la dilution réelle au point de CMI ou de CMB.

[2] = system: kératinocytes humains oraux; experiment: RT-qPCR of inflammatory marker expression in oral keratinocytes stimulated with IL-17, IL-22 and TNF-alpha; type: cell-based
Procedure: (§1) • L'échantillon « Extrait CCV » est obtenu tel que décrit dans l'exemple 1 et est dilué dans du DMSO 0,4% afin d'obtenir une concentration en célastrol de 137 µg/mL; trois doses sont testées, à savoir 10, 30 et 100 ng/mL. • L'échantillon « Célastrol » 150 µg/mL dans du DMSO 0,4 %; trois doses sont testées à savoir 10, 30 et 100 ng/mL.
(§2) Les échantillons contrôles sont les suivants : • L'échantillon témoin négatif « DMSO » (DMSO à 0,4%); et • L'échantillon témoin positif « Inhibiteur JAK » comprenant 10 µM d'inhibiteur JAK (JAK Inhibitor I - CAS 457081-03-7 - Calbiochem).
(§3) La lignée cellulaire utilisée est une lignée de kératinocytes humains oraux (CliniSciences ref.2610-SC). Cette lignée est cultivée à 37 °C, sous atmosphère 5 % de CO2 dans un milieu adapté (Oral Keratinocyte medium OKM supplémenté avec de la pénicilline 100 U/mL et de la streptomycine 100 µg/mL).
(§4) Les kératinocytes humains oraux sont ensemencés dans des puits de plaques à 24 puits (75 000 cellules/puits) et cultivés pendant 24h. Le milieu de culture est alors remplacé par du milieu frais contenant les échantillons à tester, et les cellules sont à nouveau incubées pendant 24h. L'opération est renouvelée à nouveau en présence d'un mix de cytokines stimulatrice des kératinocytes : IL-17, IL-22 et TNF-alpha à 3 ng/ml chacune. Le temps de culture est de 24h pour les expériences de RT-pPCR et de 48 pour les expériences d'ELISA. Les cellules sont ensuite lavées dans une solution de PBS et congelées immédiatement à - 80 °C.
(§5) Les expériences ont été réalisées en triplicats.
L'expression des marqueurs IL-8, CXCL1, DEBF4A, S100A7, IL-36 gamma et MMP9, par les kératinocytes est déterminée par RT-qPCR comme décrit dans la littérature avec des kits de Reverse transcriptase (Roche) et de PCR quantitative. Un témoin positif de PCR (GAPDH), exprimé constitutivement, est réalisé en parallèle afin de normaliser les résultats obtenus.

[3] = system: kératinocytes humains oraux; experiment: ELISA of IL-8, hBD-2 and MMP-9 secreted by oral keratinocytes stimulated with IL-17, IL-22 and TNF-alpha; type: cell-based; conditions: 48h stimulation; for inhibition at 10 µM: Keratinocyte
Procedure: as §1, §2, §3, §4, §5
La quantité d'IL8, hBD-2 (DEBF4A) et de MMP-9 sécrétée par les kératinocytes dans le milieu de culture après 48h de stimulation est mesurée par ELISA.

lymphocytes T CD4+ = experiment: Anti-TH17 activity: cytokines secreted by CD4+ T lymphocytes activated with anti-CD3/anti-CD28 (Multiplex Immunoassays); type: cell-based, humaines; conditions: 2 µM
Procedure: L'échantillon « Extrait CCV » est obtenu tel que dans l'exemple 1 et est dilué dans 0,4 % DMSO afin d'obtenir les différentes concentrations finales suivantes après ajout dans les puits : • Extrait 2 (titré en Célastrol à 9 ng/ml); • Extrait 3 (titré en Célastrol à 30 ng/ml); et • Extrait 4 (titré en Célastrol à 90 ng/ml).
Les échantillons contrôles sont les suivants : • Contrôle négatif 1 (solution DMSO à 0,4 %); et • Contrôle positif 5 : dexaméthasone (Dexa) à 2 µM (concentration finale dans le puits).
Les cellules T humaines ont été isolées à partir de cellules mononuclées de sang de deux donneurs sur Ficoll Paque plus (selon le protocole du fabricant). Les cellules CD4+ sont isolées par tri positif (Kit Miltenyi Biotec (CD4) et colonne LS) et remises en suspension dans du milieu de culture RPMI (Sigma Aldrich : L-Glutamine et sérum foetal bovin à 10 %) additionné de […] de streptomycine et 100 U/mL de pénicilline.
Les Lymphocytes en suspension sont répartis dans des puits de microplaques. […]
La quantité de cytokine IL17A, IFN gamma, IL22, TNF alpha et IL6 sécrétée dans le surnageant de culture des lymphocytes est ensuite mesurée par la méthode Multiplex Immunoassays (tel que notamment décrit dans Jager et al. Clin. Diagn. Lab. Immunol. 2003, 10(1), 133-139).

SMILES | CMB [1] | CMI [1] | CMB (DMSO dilution) [1] | CMI (DMSO dilution) [1] | other results
CC1=C(O)C(=O)C=C2C1=CC=C1[C@@]2(C)CC[C@@]2(C)[C@@H]3C[C@](C)(C(=O)O)CC[C@]3(C)CC[C@]12C [Célastrol] | 0,59 µg/ml | 0,29 µg/ml | 0,04% | 0,01% | expression des marqueurs IL-8, DEFBA4, S100A7, IL-36 gamma et MMP9 ([2]; 10, 30 and 100 ng/mL, 24h stimulation): inhibition claire, significative et dose dépendante; inhibition de l'expression du marqueur MMP9 ([3]; at 30 ng/ml): ~40%
CC1=C(O)C(=O)C=C2C1=CC=C1[C@@]2(C)CC[C@@]2(C)[C@@H]3C[C@@H](C)C(=O)C[C@]3(C)CC[C@]12C [Tingénine A] | 2,34 µg/ml | 1,17 µg/ml | 0,08% | 0,08% | 
CC1=C(O)C(=O)C=C2C1=CC=C1[C@@]2(C)CC[C@@]2(C)[C@@H]3C[C@@H](C)C(=O)[C@@H](O)[C@]3(C)CC[C@]12C [Tingénine B, 22 béta-Hydroxy-tingénone] | 1,17 µg/ml | 0,59 µg/ml | 0,08% | 0,04% | activité anti S. aureus, fois supérieure à celle de la Tingénine A ([1]; ratio versus Tingénine A): 2-4 fois
C[C@@H]1C[C@H]2[C@@H]3CCC4=CC(=O)C=C[C@]4(C)[C@@]3(F)[C@@H](O)C[C@]2(C)[C@@]1(O)C(=O)CO [dexaméthasone] |  |  |  |  | surexpression des cytokines IL-17A, IFN gamma, IL-22, TNF alpha et IL-6 (lymphocytes T CD4+): inhibe la surexpression de toutes les cytokines
CC(C)(C)c1nc2c3ccc(F)cc3c3c(=O)[nH]ccc3c2[nH]1 [inhibiteur JAK, JAK Inhibitor I] |  |  |  |  | expression de l'IL-36 gamma et de la MMP9 ([2]; 10 µM): n'inhibe ni l'IL-36 gamma ni la MMP9; expression d'IL8, de DEFB4A et de S100A7 ([2]; 10 µM, versus negative control): diminution de l'expression; augmentation de la sécrétion de MMP-9 ([3]; 10 µM): 60%; inhibition at 10 µM ([3]; 10 µM, read-out: inhibition de la sécrétion d'IL-8): 69%; inhibition at 10 µM ([3]; 10 µM, read-out: inhibition de la sécrétion de β-défensine-2): 82%
